Experimental data as given in ChEMBL document CHEMBL1201862, “PubChem BioAssay data set” (2004).
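Growth conditions: 96-well plates. Treatment: test compound, 48 hours, 5 concentrations. Analysis: linear interpolation between bracketing concentrations; unreached endpoints set to highest concentration. Here, GI50 denotes the concentration required for 50% inhibition of growth.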 Active and inactive are the calls of the source. Cut-off read from the data, not from the text of the source: active = GI50 up to about 1.1 µM and inactive = higher.

How the values were obtained:
Assay in all cases: NCI tumour cell line growth inhibition, 48 h
HOP-18 = tested on: HOP-18
DLD-1 = tested on: DLD-1
KM-20L2 = tested on: KM-20L2
SNB-78 = tested on: SNB-78
RXF 631 = tested on: RXF 631
XF498 = tested on: XF498
M19-MEL = tested on: M19-MEL
DMS-114 = tested on: DMS-114
DMS-273 = tested on: DMS-273

Row | Compound | GI50 (HOP-18) | GI50 (DLD-1) | GI50 (KM-20L2) | GI50 (SNB-78) | GI50 (RXF 631) | GI50 (XF498) | GI50 (M19-MEL) | GI50 (DMS-114) | GI50 (DMS-273)
1 | CCc1c(OC(C)=O)c2c(NC3OC(COC(C)=O)C(OC(C)=O)C(OC(C)=O)C3OC(C)=O)nc(SC)nc2oc1=O (stereo not given) | > 100 µM (inactive) | > 100 µM (inactive) | > 100 µM (inactive) | > 100 µM (inactive) | > 100 µM (inactive) | > 100 µM (inactive) | > 100 µM (inactive) | > 100 µM (inactive) | 
2 | S=C1CNC(=S)CN1 | > 100 µM (inactive) | > 100 µM (inactive) | > 100 µM (inactive) | > 100 µM (inactive) | > 100 µM (inactive) |  | > 100 µM (inactive) | > 100 µM (inactive) | > 100 µM (inactive)
3 | Cc1ccc(S(=O)(=O)N/N=C/CN2C(=O)c3ccccc3C2=O)cc1 |  | > 100 µM (inactive) | > 100 µM (inactive) |  |  | > 100 µM (inactive) | > 100 µM (inactive) | > 100 µM (inactive) | > 100 µM (inactive)
4 | CNC(=O)C1CCc2nnc(-c3ccccc3)n21 (stereo not given) | > 100 µM (inactive) | > 100 µM (inactive) | > 100 µM (inactive) | > 100 µM (inactive) | > 100 µM (inactive) |  | > 100 µM (inactive) | > 100 µM (inactive) | > 100 µM (inactive)
5 | CC(=O)Oc1ccc2c(c1)C(=O)c1nc(C)c(C)nc1C2=O | > 83.2 µM (inactive) | 42.9 µM (inactive) | 34 µM (inactive) | 48.2 µM (inactive) | 30.5 µM (inactive) | 43.9 µM (inactive) | 4.61 µM (inactive) | 34.8 µM (inactive) | > 73.8 µM (inactive)
6 | CC(C)=CC(=O)Cc1nc2ccc([N+](=O)[O-])cc2[nH]c1=O |  | 72.1 µM (inactive) | > 100 µM (inactive) | > 100 µM (inactive) |  | 41.3 µM (inactive) | > 100 µM (inactive) | 51.3 µM (inactive) | > 100 µM (inactive)
7 | COc1ccc(SS(=O)(=O)c2ccc(OC)cc2)cc1 | 22.5 µM (inactive) | 21.9 µM (inactive) | 21.3 µM (inactive) | 53.7 µM (inactive) | 39 µM (inactive) |  | 19.5 µM (inactive) | 16 µM (inactive) | 
8 | O=[N+]([O-])c1ccc(Cl)c(C2SCc3nc4ccccc4n32)c1 (stereo not given) | 5.87 µM (inactive) | 45.8 µM (inactive) |  | 34.6 µM (inactive) |  |  | 29.6 µM (inactive) | 37 µM (inactive) | 22.9 µM (inactive)
9 | CN(C)CCn1cnc2ncccc2c1=O |  | > 100 µM (inactive) | > 100 µM (inactive) | > 100 µM (inactive) |  | > 100 µM (inactive) | > 100 µM (inactive) | 53.1 µM (inactive) | > 100 µM (inactive)
10 | O=C(O)c1cc(Cl)cc(NC(=O)C(Cl)Cl)c1Cl | > 100 µM (inactive) | > 100 µM (inactive) | > 100 µM (inactive) | > 100 µM (inactive) | > 100 µM (inactive) | > 100 µM (inactive) | > 100 µM (inactive) | > 100 µM (inactive) | > 100 µM (inactive)
11 | O=C(NC1CCCC1=O)c1ccccc1 (stereo not given) |  | > 100 µM (inactive) | > 100 µM (inactive) | > 100 µM (inactive) | > 100 µM (inactive) | > 100 µM (inactive) | > 100 µM (inactive) | > 100 µM (inactive) | > 100 µM (inactive)
12 | CC(=O)Nc1ccc(/C=C/C(=O)c2sc(-c3nc(C)c(C(=O)/C=C/c4ccc(NC(C)=O)cc4)s3)nc2C)cc1 |  | > 100 µM (inactive) | > 100 µM (inactive) | > 100 µM (inactive) | > 100 µM (inactive) | > 100 µM (inactive) | > 100 µM (inactive) | > 100 µM (inactive) | > 100 µM (inactive)
13 | Cn1c(=O)n(C2(C)CSC2)c2ccccc21 |  | > 100 µM (inactive) | > 100 µM (inactive) |  |  | > 100 µM (inactive) | > 100 µM (inactive) | > 100 µM (inactive) | > 100 µM (inactive)
14 | Brc1ccc(-c2cc3c(cc2C2SCCS2)OCO3)cc1 | 49.4 µM (inactive) | 31.5 µM (inactive) | 26.7 µM (inactive) | 11.4 µM (inactive) |  | 14.2 µM (inactive) | 41.7 µM (inactive) | 23.2 µM (inactive) | 35.6 µM (inactive)
15 | CC(C)(C)c1ccc2c(c1)S(=O)(=O)Nc1ccc(Cl)cc1NS(=O)(=O)c1cc(C(C)(C)C)ccc1OCCOCCOCCO2 | > 100 µM (inactive) | 85.7 µM (inactive) |  | 30.6 µM (inactive) |  |  | 62.4 µM (inactive) | 36.3 µM (inactive) | 56.8 µM (inactive)
16 | COC(=O)C1=C(C=O)C2C=CC1C2 (stereo not given) | 30.5 µM (inactive) | 27.9 µM (inactive) | > 63 µM (inactive) | 74.1 µM (inactive) | > 100 µM (inactive) | 27.2 µM (inactive) | > 45 µM (inactive) | > 57.7 µM (inactive) | > 44.2 µM (inactive)
17 | O=C(CC1(O)C(=O)Nc2ccccc21)c1ccc(F)cc1 (stereo not given) |  | > 100 µM (inactive) | > 100 µM (inactive) | > 100 µM (inactive) |  | > 100 µM (inactive) | > 100 µM (inactive) | > 100 µM (inactive) | > 100 µM (inactive)
18 | NC(=O)N=C(N(Cc1ccccc1)Cc1ccccc1)N(Cc1ccccc1)Cc1ccccc1 |  | 4.83 µM (inactive) | 2.69 µM (inactive) | 25.1 µM (inactive) |  |  | > 100 µM (inactive) |  | 3.41 µM (inactive)
19 | O=C1NC(=O)C2C1C1C=C3c4ccccc4N(c4ccccc4)C32[C@H]2C(=O)NC(=O)[C@@H]12 (stereo not given in full) | > 100 µM (inactive) | > 100 µM (inactive) | > 100 µM (inactive) | > 100 µM (inactive) |  |  | > 100 µM (inactive) | > 100 µM (inactive) | > 100 µM (inactive)
20 | CC(c1ccc2c(c1)CCC1C2CC2OC23CC=CC(=O)[C@]13C)C1C[C@]2(C)O[C@]2(C)[C@H](O)O1 (stereo not given in full) |  |  | 34.8 µM (inactive) |  |  | 56.9 µM (inactive) | 34.4 µM (inactive) | 0.429 µM (active) | 21.7 µM (inactive)
21 | COc1cc(NS(C)(=O)=O)ccc1Nc1c2ccccc2nc2ccccc12 [AMSACRINE] | 0.7 µM (active) | 2.79 µM (inactive) | 1.45 µM (inactive) | 3.97 µM (inactive) | 0.509 µM (active) |  | 1.89 µM (inactive) | 0.184 µM (active) | 0.0659 µM (active)
22 | CN(Cc1cnc2nc(N)nc(N)c2n1)c1ccc(C(=O)N[C@@H](CCC(=O)O)C(=O)O)cc1 [METHOTREXATE] | 15.9 µM (inactive) | 0.0356 µM (active) | 0.044 µM (active) | 117 µM (inactive) |  | 68.5 µM (inactive) | 0.424 µM (active) | 0.0288 µM (active) | 0.0308 µM (active)
